One assay deals with PDE4 (cAMP-specific). The assay can be described thus: Inhibition of PDE isoenzymes: PDE4. Conditions: cytosol of human polymorphonuclear leukocytes (PMNL), cAMP as substrate, motapizone 1 μM present. Format: biochemical.
A further assay has as its target T1, PDE3 (cGMP-inhibited) (Homo sapiens, UniProt Q14432).
T1 construct: were investigated in homogenates of human blood platelets; from tissue; host or cells: homogenates of human blood platelets
The assay can be described thus: Inhibition of PDE isoenzymes: PDE3. In kind it is biochemical. As to conditions: homogenates of human blood platelets, cAMP as substrate; read-out: PDE3 [-loglC50,mol/l] (converted). How it is done:
The PDE activity was determined according to Thompson et al. (1) with some modifications (2). The test samples contained 40 mM tris HCl (pH 7.4), 5 mM MgCl2, 0.5 μM cAMP or cGMP, [^3 H] cAMP or [3H]CGMP (about 50,000 cpm/sample), the PDE isoenzyme-specific additions described in greater detail below, the indicated concentrations of inhibitor and an aliquot of the enzyme solution in a total sample volume of 200 μl. […] After preincubation at 37° C. for 5 minutes, the reaction was started by addition of the substrate (cAMP or cGMP). The samples were incubated at 37° C. for a further 15 min. The reaction was terminated by addition of 50 μl of 0.2 N HCl. After cooling on ice for 10 minutes and addition of 25 μg of 5'-nucleotidase (snake venom from Crotalus atrox), the mixture was again incubated at 37° C. for 10 min and the samples were then applied to QAE Sephadex A-25 columns. The columns were eluted with 2 ml of 30 mM ammonium formate (pH 6.0). The radioactivity of the eluate was measured and corrected by the corresponding blank values. The proportion of hydrolysed nucleotide in no case exceeded 20% of the original substrate concentration.
PDE3 (cGMP-inhibited) and PDE5 (cGMP-specific) were investigated in homogenates of human blood platelets [Schudt et al. (4)] using cAMP or cGMP as a substrate.
The IC50 values were determined from the concentration-inhibition curves by nonlinear regression using the GraphPad InPlot™ program (GraphPad Software Inc., […], USA).

Each structure is given as a SMILES string.

T1 sequence (Q14432 whole entry): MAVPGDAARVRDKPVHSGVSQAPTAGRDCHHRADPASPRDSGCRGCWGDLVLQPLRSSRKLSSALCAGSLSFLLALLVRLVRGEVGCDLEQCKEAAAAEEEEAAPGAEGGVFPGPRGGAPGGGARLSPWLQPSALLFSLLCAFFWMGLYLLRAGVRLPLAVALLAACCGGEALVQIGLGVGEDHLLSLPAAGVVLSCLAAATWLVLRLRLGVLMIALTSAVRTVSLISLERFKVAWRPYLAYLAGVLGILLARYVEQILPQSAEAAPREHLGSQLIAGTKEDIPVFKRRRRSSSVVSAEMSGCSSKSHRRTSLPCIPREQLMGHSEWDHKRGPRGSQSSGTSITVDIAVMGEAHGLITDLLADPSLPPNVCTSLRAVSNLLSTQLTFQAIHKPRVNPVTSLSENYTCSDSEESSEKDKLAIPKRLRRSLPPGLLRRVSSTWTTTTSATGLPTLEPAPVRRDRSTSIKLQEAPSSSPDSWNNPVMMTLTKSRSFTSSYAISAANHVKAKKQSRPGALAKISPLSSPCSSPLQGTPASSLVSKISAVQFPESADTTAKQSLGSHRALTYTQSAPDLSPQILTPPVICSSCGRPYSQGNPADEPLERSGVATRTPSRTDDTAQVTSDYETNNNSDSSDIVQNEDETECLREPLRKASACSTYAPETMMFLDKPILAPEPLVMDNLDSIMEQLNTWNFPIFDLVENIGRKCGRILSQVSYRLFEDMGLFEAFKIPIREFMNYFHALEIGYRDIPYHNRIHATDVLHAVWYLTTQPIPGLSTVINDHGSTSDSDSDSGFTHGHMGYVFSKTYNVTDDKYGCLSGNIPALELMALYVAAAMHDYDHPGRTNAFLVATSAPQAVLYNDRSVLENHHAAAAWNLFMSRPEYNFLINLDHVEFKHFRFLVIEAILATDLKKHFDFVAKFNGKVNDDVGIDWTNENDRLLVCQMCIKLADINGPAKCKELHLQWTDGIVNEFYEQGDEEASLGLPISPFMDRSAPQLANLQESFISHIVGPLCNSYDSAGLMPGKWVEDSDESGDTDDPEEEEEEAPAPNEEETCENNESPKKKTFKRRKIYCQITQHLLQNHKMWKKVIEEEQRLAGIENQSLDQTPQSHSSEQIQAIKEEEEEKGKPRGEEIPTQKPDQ

For the compound `CCCCN(CCCC)C(=O)c1ccc(C2=N[C@@H]3CC[N+](C)([O-])C[C@@H]3c3cc(OCCC)c(OC)cc32)cc1` (relative stereo) [Compound 3, cis-8-methoxy-2-methyl-9-propoxy-6-(4-dibutylaminocarbonylphenyl)-1 ,2,3,4,4a,10b-hexahydrobenzo[c][1,6]naphthyridine N-2-oxide], at PDE4 (cAMP-specific), the “PDE4 [-loglC50,mol/l]” value is 7.53. For the same compound, at PDE3 (cGMP-inhibited), the IC50 is 2090 nM.
Take `CCOc1cc2c(cc1OC)C(c1ccc(C(=O)N(C(C)C)C(C)C)cc1)=N[C@@H]1CC[N+](C)([O-])C[C@H]21` (single isomer, unassigned) [Compound 1, cis-9-ethoxy-8-methoxy-2-methyl-6-(4-diisopropylaminocarbonylphenyl)-1,2,3,4,4a,10b-hexahydrobenzo[c][1,6]naphthyridine N-2-oxide]: on PDE4 (cAMP-specific), the “PDE4 [-loglC50,mol/l]” value stood at 7.20. Besides, the IC50 at PDE3 (cGMP-inhibited) is 776 nM.
For the compound `CCCCN(CCCC)C(=O)c1ccc(C2=N[C@@H]3CC[N+](C)([O-])C[C@@H]3c3cc(OCC)c(OC)cc32)cc1` (relative stereo) [Compound 2, cis-9-ethoxy-2-methyl-8-methoxy-6-(4-dibutylaminocarbonylphenyl)-1 ,2,3,4,4a,10b-hexahydrobenzo[c][1,6]naphthyridine N-2-oxide], on PDE4 (cAMP-specific), the “PDE4 [-loglC50,mol/l]” value was determined as 7.98. At PDE3 (cGMP-inhibited), the IC50 was 1070 nM.
